Assay results taken from PubChem BioAssay (NCI).
Several values for one entry are separate records, joined by “and”; a condition that tells them apart may be missing. Identical values can stand only once.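 Assay format: 96-well plates, 48-hour exposure. Abbreviation: GI50, concentration required for 50% inhibition of growth. TGI denotes the concentration required for complete inhibition of growth.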

Experiments:
Assay in all cases: inhibition of tumour cell growth, NCI panel, 48 h
SF-539 CNS = tested on: SF-539 CNS
KM12 colon = tested on: KM12 colon
HOP-62 NSCLC = tested on: HOP-62 NSCLC
MDA-MB-231 breast = tested on: MDA-MB-231 breast
NCI-H522 lung = tested on: NCI-H522 lung
SF-268 CNS = tested on: SF-268 CNS
NCI/ADR-RES ovarian = tested on: NCI/ADR-RES ovarian
CAKI-1 renal = tested on: CAKI-1 renal

Compound	GI50 (SF-539 CNS)	TGI (SF-539 CNS)	GI50 (KM12 colon)	TGI (KM12 colon)	GI50 (HOP-62 NSCLC)	TGI (HOP-62 NSCLC)	GI50 (MDA-MB-231 breast)	TGI (MDA-MB-231 breast)	GI50 (NCI-H522 lung)	TGI (NCI-H522 lung)	GI50 (SF-268 CNS)	TGI (SF-268 CNS)	GI50 (NCI/ADR-RES ovarian)	TGI (NCI/ADR-RES ovarian)	GI50 (CAKI-1 renal)	TGI (CAKI-1 renal)
OCC1OC(N2C=C(c3nc4ccccc4s3)C3C=CC=CC32)C(O)C(O)C1O (stereo unspecified)	14.8 µM	40.3 µM	11 µM	24.3 µM	20.8 µM	> 50 µM	15.4 µM	> 50 µM	> 50 µM	> 50 µM	15 µM	> 50 µM	> 50 µM	> 50 µM	16.9 µM	> 50 µM
CCNCC(=O)Nc1ccc2c(c1)C(=O)c1ccc(NC(=O)CNCC)cc1C2=O		16.2 µM		> 100 µM		20 µM		9.88 µM		4.61 µM		16.6 µM		28.3 µM		29.6 µM
COc1cc(CSc2nc3ccc(Cl)cc3c(=O)n2Cc2ccccc2)cc(OC)c1OC	2.57 µM	9.34 µM	2.9 µM	> 100 µM	2.88 µM	18.2 µM	5.34 µM	> 100 µM	0.652 µM	4.54 µM	7.33 µM	> 100 µM	2.77 µM	> 100 µM	3.19 µM	> 100 µM
Clc1cc(Br)ccc1-c1ccc(CNCC2CCNCC2)o1	1.65 µM	3.17 µM	1.71 µM	3.22 µM	1.84 µM	3.43 µM	1.59 µM	3.42 µM	1.82 µM	3.72 µM	1.57 µM	3.04 µM	3.13 µM	9.69 µM	1.85 µM	3.58 µM
CCN1/C(=C/C(C)=C/c2sc3ccc4ccccc4c3[n+]2CC)Sc2ccc3ccccc3c21	0.227 µM	1.01 µM	0.136 µM	0.276 µM	0.192 µM	0.47 µM	0.271 µM	1.04 µM	0.121 µM	0.528 µM	0.198 µM	0.678 µM	0.964 µM	5.61 µM	0.264 µM	1.15 µM
COC(=O)c1c2c(c(C)[n+]([O-])c1C)C(=O)C(NCc1ccccc1)=CC2=O	2.29 µM	5.3 µM	2.4 µM	9.6 µM	3.1 µM	17.9 µM			2.45 µM	7.62 µM	2.81 µM	9.69 µM			2.84 µM	14.3 µM
O=S(O)O.O=S(O)O.[Co].[NH2-].[NH2-].[NH2-].[NH2-]	> 100 µM	> 100 µM	> 100 µM	> 100 µM	> 100 µM	> 100 µM	> 100 µM	> 100 µM	> 100 µM	> 100 µM	> 100 µM	> 100 µM	> 100 µM	> 100 µM	> 100 µM	> 100 µM
c1cc(OCCN2CCCC2)ccc1CNc1ccc2nc(CCC3CCCCC3)[nH]c2c1	1.51 µM	3 µM	2.7 µM	8.46 µM	1.71 µM	3.62 µM	1.61 µM	3.19 µM	2.1 µM	4.47 µM	1.82 µM	4.38 µM	2.76 µM	10.7 µM	1.79 µM	3.38 µM
CCCCCN(CCCCC)CCC[C@@H](C)[C@H]1CC[C@H]2[C@@H]3[C@H](OCCCN)C[C@@H]4C[C@H](OCCCN)CC[C@]4(C)[C@H]3C[C@H](OCCCN)[C@]12C	1.94 µM	4.3 µM	3.59 µM	17 µM	5.23 µM	23.5 µM	4.41 µM	19.7 µM	2.98 µM	12.3 µM	13.6 µM	31.5 µM	12.1 µM	37.7 µM	40.7 µM	> 100 µM
COc1cc2c3c(n(CCCN=[N+]=[N-])c(=O)c2cc1OC)-c1ccc(F)cc1C3=O	3.23 µM	12.4 µM	41.2 µM	> 100 µM	4.18 µM	> 100 µM	> 100 µM	> 100 µM	4.89 µM	> 100 µM	3.8 µM	> 100 µM	7.44 µM	> 100 µM	4.56 µM	> 100 µM
COc1ccc(Sc2[nH]c(C=O)c3ccccc23)cc1	10.9 µM	23 µM	3.62 µM	13.7 µM	15.5 µM	29.7 µM	13.4 µM	34.2 µM	14.3 µM	31.8 µM	14.9 µM	31.2 µM	11.6 µM	47.5 µM	16.7 µM	84 µM
O=C(Nc1ccc(I)cc1F)c1cc(Br)ccc1O	0.583 µM	3.74 µM	2.2 µM	5.49 µM	2.03 µM	7.04 µM	0.457 µM	4.73 µM	0.348 µM	4.44 µM	0.498 µM	8.07 µM	0.613 µM	4.5 µM	0.308 µM	2.34 µM
CCCCN(CCCC)P(=O)(Oc1ccccc1)Oc1ccccc1	14 µM	28.6 µM	8.1 µM	21.4 µM	14 µM	27.7 µM	8.08 µM	23.3 µM	3.96 µM	18.2 µM	8.86 µM	21.9 µM	5.23 µM	18.7 µM	2.42 µM	11.3 µM
CC(C)[C@@]12C[C@@H](OC(=O)C3CO3)[C@@](C)(O1)[C@@H]1CC[C@@H](C)[C@H]1[C@@H]2OC(=O)/C=C/c1ccccc1 (stereo partly specified)	16.4 µM	31.4 µM	18.7 µM	38.1 µM	21.2 µM	> 100 µM	13.3 µM	31.2 µM	17.4 µM	37.3 µM	12.1 µM	40.2 µM	10.8 µM	37.4 µM	13.1 µM	54.8 µM
COc1ccc(C)c2sc(N(Cc3cccnc3)C(=O)c3ccc(C#N)cc3)nc12	55.6 µM	> 100 µM	34.6 µM	> 100 µM	> 100 µM	> 100 µM	38.2 µM	> 100 µM	29.7 µM	> 100 µM	58.7 µM	> 100 µM	37.7 µM	> 100 µM	47.2 µM	> 100 µM
CC[C@]12CN3CCc4c([nH]c5ccccc45)[C@@](C(=O)OC)(c4cc5c(cc4OC)N(C)[C@H]4[C@@](O)(C(=O)OC)[C@H](OC(C)=O)[C@]6(CC)C=CCN7CC[C@]54[C@@H]76)CC(C3)[C@H]1O2 (stereo partly specified)	0.128 µM	1.8 µM and 9.39 µM	0.105 µM		0.121 µM	26.9 µM		7.02 µM and > 11 µM			0.226 µM	> 68.1 µM	11.6 µM	> 100 µM	3.72 µM	> 100 µM

Compound	GI50 (SF-539 CNS)	TGI (SF-539 CNS)	GI50 (KM12 colon)	TGI (KM12 colon)	GI50 (HOP-62 NSCLC)	TGI (HOP-62 NSCLC)	GI50 (MDA-MB-231 breast)	TGI (MDA-MB-231 breast)	GI50 (NCI-H522 lung)	TGI (NCI-H522 lung)	GI50 (SF-268 CNS)	TGI (SF-268 CNS)	GI50 (NCI/ADR-RES ovarian)	TGI (NCI/ADR-RES ovarian)	GI50 (CAKI-1 renal)	TGI (CAKI-1 renal)
CCOC(=O)c1c(NN2CCN(CC(F)(F)F)CC2)oc(/C=C2\C=Nc3ncccc32)c1O	2.33 µM	13.9 µM	3.45 µM	15.3 µM	5.03 µM	21.8 µM	6.72 µM	32.4 µM	1.05 µM	11.1 µM	3.04 µM	16.1 µM	19.3 µM	57.8 µM	1.08 µM	13.5 µM
COc1ccc(C2c3ccc4ccccc4c3Oc3ncn(CCCn4ccnc4)c(=N)c32)cc1OC (stereo unspecified)	1.74 µM	3.28 µM	3.74 µM	13.9 µM	5.03 µM	18.4 µM	2.44 µM	8.01 µM	1.87 µM	4.36 µM	3.52 µM	13.8 µM	3.96 µM	17.4 µM	4.84 µM	17.8 µM
COc1ccc(-c2cnc(-c3ccc(OC)cc3)n2-c2cc(OC)c(OC)c(OC)c2)cc1	23.9 µM	54.9 µM	34.9 µM	> 100 µM	21.4 µM	44.9 µM	18.4 µM	74.3 µM	29.5 µM	> 100 µM	30.6 µM	> 100 µM	30.3 µM	> 100 µM	23.8 µM	80.2 µM
CCn1nc(C2CCN(C(=O)CCO)CC2)nc1-c1cnc(N)c(-c2nnc(C(C)(C)C)o2)n1	5.74 µM	> 100 µM	14.9 µM	45.1 µM	5.01 µM	> 100 µM	15.1 µM	68.2 µM	15.3 µM	63.5 µM	23.1 µM	> 100 µM	14.6 µM	> 100 µM	3.35 µM	> 96.6 µM
N#Cc1c(N)nc2c(c1-c1ccc(Cl)cc1)COc1ccc(F)cc1-2	20.1 µM	40.1 µM	29.4 µM	80 µM	25.1 µM	75.2 µM	11.9 µM	51.8 µM	23 µM	59.5 µM	37.1 µM	> 100 µM	22.9 µM	54.6 µM	25.2 µM	66.3 µM
CCOc1ccccc1/C=N\N=C(N/N=C/c1ccccc1OCC)N/N=C/c1ccccc1OCC	2.41 µM	> 100 µM	1.72 µM	> 100 µM	1.85 µM	> 100 µM	1.73 µM	7.52 µM			1.62 µM	> 100 µM	1.7 µM	> 100 µM	1.4 µM	> 100 µM
Cc1ccc(/C(=N/NS(=O)(=O)c2cc(C)c(Cl)cc2Cl)Sc2cc(Cl)c(C)cc2S(N)(=O)=O)cc1	> 100 µM	> 100 µM	> 100 µM	> 100 µM	> 100 µM	> 100 µM	> 100 µM	> 100 µM	> 100 µM	> 100 µM	> 100 µM	> 100 µM	> 100 µM	> 100 µM	> 100 µM	> 100 µM
Clc1ccc(-c2cnc3c(-c4ccnc(N5CCNCC5)c4)cnn3c2)cc1	1.74 µM	3.29 µM	1.87 µM	3.43 µM	1.92 µM	3.38 µM	1.74 µM	3.7 µM	2.37 µM	5.89 µM	1.91 µM	3.69 µM			1.9 µM	3.51 µM
COc1ccc2c(n1)Sc1nc3ccccc3nc1N2		50.1 µM		> 100 µM		79.5 µM		49.7 µM		> 100 µM		> 100 µM		> 100 µM		> 100 µM
CCCCCCCCCCCCCCCCn1cc[n+](C)c1	1.16 µM	2.38 µM	0.264 µM	0.756 µM	0.443 µM	1.73 µM	0.814 µM	2.23 µM			0.837 µM	2.12 µM	1.95 µM	18.4 µM	0.385 µM	2.33 µM
CC(=O)OCC1OC(SC2=N/C(=C\c3ccc(Br)s3)C(=O)N2c2ccccc2)C(OC(C)=O)C(OC(C)=O)C1OC(C)=O (stereo unspecified)			> 100 µM and 44.3 µM	> 100 µM		> 100 µM		> 100 µM		> 100 µM and 94.3 µM		> 100 µM		> 100 µM	13.4 µM and 85.7 µM	32.5 µM and > 100 µM
COc1ccc(O)c(/C=N\Nc2ccccc2)c1		68.4 µM				> 100 µM		> 100 µM		49.2 µM		> 100 µM		> 100 µM		
CCCN(CCC)c1ccc(/C=N/NC(=O)c2cccnc2)c(C)c1	13.8 µM	29.3 µM	11.9 µM	24.5 µM	18.2 µM	43.3 µM			12.6 µM	30 µM	13.9 µM	31.2 µM	15.2 µM	51.5 µM	19.2 µM	58.7 µM
COc1ccc(C(=O)/C=C/c2cc(-c3ccc(OC)c(OC)c3)n[nH]2)cc1OC	0.525 µM	2.54 µM	0.625 µM	2.08 µM	1.73 µM	5.6 µM	1.88 µM	6.38 µM	1.69 µM	3.9 µM	2.09 µM	9.82 µM	3.43 µM	33.1 µM		
COc1cccc2c1C(=O)c1c(O)c3c(c(O)c1C2=O)C[C@](O)(C(=O)CO)C[C@H]3O[C@@H]1C[C@@H](NC(=O)CCCN(C)C2(c3ccc(F)cc3)CC3CCC2C3)[C@H](O)[C@@H](C)O1 (stereo partly specified)	0.846 µM	1.56 µM			2.26 µM	10.6 µM	0.771 µM	1.54 µM	0.827 µM	1.61 µM			8.47 µM	50 µM	7.16 µM	14.5 µM
